From US8217172B2, “Solid forms of 1-ethyl-3-(5-(5-fluoropyridin-3-yl)-7-(pyrimidin-2-yl)-1H-benzo[d]imidazol-2-yl)urea” (Vertex Pharmaceuticals Incorporated, priority 2007, dated 2012)
Values after ≈ are worked out from the molar mass of the structure shown. Where two headings read alike, the source gives them in different places.

Key:
Type in all cases: physicochemical
[1] = Solubility in various media (equilibration on a shaking bed for 24 hours, HPLC); conditions: for solubility at 24 h: thermodynamic from solid
Method: (§1) Solubility: The solubility of form IA in various media was determined at ambient conditions by equilibrating aliquots of the drug powder with the solvents on a shaking bed for 24 hours. The samples were centrifuged, the saturated solutions of the drug were then separated and analyzed by HPLC. The sample volume was 100 μL and the target concentration was 10 mg/mL. The saturated solutions were diluted appropriately and analyzed by HPLC.
Solubility: Solubility of form IIC in various media was determined at ambient conditions by equilibrating aliquots of the drug powder with the solvents on a shaking bed for 24 hours. Samples were spun and the supernatant was carefully separated and analyzed by HPLC at the 24-hour timepoint using a stability-indicating method. […] Some variability may occur between lots of a particular sample.
as §1, with “Solubility” for “The solubility”, “IIIB” for “IA”, “medium” for “solvents”, “μL,” for “μL”, “mg/ml.” for “mg/mL.”

[2] = Dynamic Vapor Sorption (DVS), step isothermal study; conditions: 25° C.
Method: (§2) Dynamic Vapor Sorption (DVS): A step isothermal study (25° C.) was conducted on a representative sample of form IA using a VTI SGA 100 Symmetric Vapor Sorption Analyzer. An aliquot of approximately 10 mg was weighed in an open platinum dish and exposed to different levels of humidity at 25° C. Relative humidity (RH) steps were from 5% to 95% (adsorption) and from 95% to 5% in increments of 5% RH (desorption). The equilibration criterion was 0.0100 wt % change in 5 min, with a max equilibration time of 180 min. The sample picked up ˜8 wt % moisture at 95% relative humidity (RH).
as §2, with “a” for “a representative”, “form IIA” for “form IA”, “The material” for “The sample”, “up ˜11” for “up ˜8”
as §2, with “a” for “a representative”, “form IIC” for “form IA”, “The material” for “The sample”, “up ˜4” for “up ˜8”
Water Vapor Sorption analysis: Vapor Sorption analysis of a sample of form IIIB was done using a SGA-100 Vapor Sorption Analyzer (VTI, Hialeah, Fla.). A sample with weight of approximately 7-12 mg was measured isothermally at 25° C. Data was collected by Isotherm software and analyzed by Microsoft Excel with a VTI macro (VTI, Hialeah, Fla.). The sample gained about 4.6% in weight from 5 to 95% RH (25° C.).

[3] = Stability analysis (chemical stability by HPLC, physical stability by XRPD)
From the text: In some embodiments, less than 25% of the form of Compound 1 decomposes, in some embodiments, less than about 20%, less than about 15%, less than about 10%, less than about 5%, less than about 3%, less than about 1%, less than about 0.5% of the form of Compound 1 decomposes under the conditions specified. In some embodiments, no detectable amount of the form of Compound 1 decomposes.
In some embodiments, less than 25% of the form of Compound 1 changes into one or more different physical forms when subjected to specified conditions, In some embodiments, less than about 20%, less than about 15%, less than about 10%, less than about 5%, less than about 3%, less than about 1%, less than about 0.5% of the form of Compound 1 changes into one or more different physical forms of Compound 1 when subjected to specified conditions. In some embodiments, no detectable amount of the form of Compound 1 changes into one or more different physical forms of Compound 1.

[4] = various storage conditions, including 40° C./75% RH (e.g., open container)

Work on `CCNC(=O)Nc1nc2cc(-c3cncc(F)c3)cc(-c3ncccn3)c2[nH]1` [Form IA, crystalline 1-ethyl-3-(5-(5-fluoropyridin-3-yl)-7-(pyrimidin-2-yl)-1H-benzo[d]imidazol-2-yl)urea] yielded a solubility at 24 h ([1]; 0.05 M potassium biphthalate-sodium hydroxide buffer, pH 3, aqueous buffer, Potassium biphthalate sodium hydroxide, pH 3, read-out: Solubility in 0.05M Buffers at Different pH) of 70 µg/mL (≈ 185 µM), a solubility at 24 h ([1]; 0.05 M potassium biphthalate-sodium hydroxide buffer, pH 5, aqueous buffer, Potassium biphthalate sodium hydroxide, pH 5, read-out: Solubility in 0.05M Buffers at Different pH) of under 1 µg/mL and a solubility at 24 h ([1]; 0.05 M potassium chloride-hydrochloric acid buffer, pH 1, simulated gastric fluid, Potassium chloride hydrochloric acid, pH 1, read-out: Solubility in 0.05M Buffers at Different pH) of 2240 µg/mL (≈ 5940 µM). For the same compound, the solubility at 24 h ([1]; 0.05 M potassium phosphate monobasic-sodium hydroxide buffer, pH 7, aqueous buffer, Potassium phosphate monobasic-sodium hydroxide, pH 7, read-out: Solubility in 0.05M Buffers at Different pH) was under 1 µg/mL, the solubility at 24 h ([1]; 0.05 M potassium phosphate monobasic-sodium hydroxide buffer, pH 9, aqueous buffer, Potassium phosphate monobasic-sodium hydroxide, pH 9, read-out: Solubility in 0.05M Buffers at Different pH) was under 1 µg/mL and the solubility at 24 h ([1]; 0.1N HCl, pH 1.29, simulated gastric fluid, 0.1N HCL, pH 1.29, ambient, 24 h, read-out: Solubility) was 13700 µg/mL (≈ 36200 µM). For the same compound, the solubility at 24 h ([1]; 1% SLS (sodium lauryl sulfate), pH 7.87, aqueous with cosolvent or surfactant or cyclodextrin, 1% SLS (Sodium Lauryl Sulfate), pH 7.87, ambient, 24 h, read-out: Solubility) was 75 µg/mL (≈ 199 µM), the solubility at 24 h ([1]; 1% Tween 80 in water, aqueous with cosolvent or surfactant or cyclodextrin, 1% Tween80 in water, ambient, 24 h, read-out: Solubility) was 10 µg/mL (≈ 26.5 µM) and the solubility at 24 h ([1]; 10% Cremophor EL, pH 6.48, aqueous with cosolvent or surfactant or cyclodextrin, 10% Cremophor EL, pH 6.48, ambient, 24 h, read-out: Solubility) was 66 µg/mL (≈ 175 µM). For the same compound, the solubility at 24 h ([1]; 10% Cremophor in water, aqueous with cosolvent or surfactant or cyclodextrin, 10% Cremophor in water, ambient, 24 h, read-out: Solubility) was 80 µg/mL (≈ 212 µM), the solubility at 24 h ([1]; 10% Tween 80, pH 6.22, aqueous with cosolvent or surfactant or cyclodextrin, 10% Tween 80, pH 6.22, ambient, 24 h, read-out: Solubility) was 67 µg/mL (≈ 178 µM) and the solubility at 24 h ([1]; 10% Vit E TPGS, pH 5.57, aqueous with cosolvent or surfactant or cyclodextrin, 10% Vit E TPGS, pH 5.57, ambient, 24 h, read-out: Solubility) was 87 µg/mL (≈ 231 µM). The solubility at 24 h ([1]; D5W (dextrose 5% in water), saline or isotonic, D5W (Dextrose 5% in water), ambient, 24 h, read-out: Solubility) was under 1 µg/mL, the solubility at 24 h ([1]; Fasted SIF (Dressman's recipe 1), fassif, Dressman's recipe 1-Fasted SIF, ambient, 24 h, read-out: Solubility) was under 1 µg/mL and the solubility at 24 h ([1]; Fed SIF (simulated intestinal fluid, Dressman's recipe 1), fessif, Dressman's recipe 1-Fed SIF (Simulated Intestinal Fluid), ambient, 24 h, read-out: Solubility) was 10 µg/mL (≈ 26.5 µM). It also gave a solubility at 24 h ([1]; Miglyol 810, oil or lipid, Miglyol 810, ambient, 24 h, read-out: Solubility) of 17 µg/mL (≈ 45 µM), a solubility at 24 h ([1]; PBS, aqueous buffer, PBS (Phosphate Buffer Saline), ambient, 24 h, read-out: Solubility) of under 1 µg/mL and a solubility at 24 h ([1]; PEG 400, pH 7.54, organic solvent or mixture, PEG 400, pH 7.54, ambient, 24 h, read-out: Solubility) of 1620 µg/mL (≈ 4300 µM). For the same compound, the solubility at 24 h ([1]; SGF (simulated gastric fluid, USP recipe), simulated gastric fluid, USP recipe-SGF (Simulated Gastric Fluid), ambient, 24 h, read-out: Solubility) was 4920 µg/mL (≈ 13000 µM), the solubility at 24 h ([1]; Tris buffer, pH 7 (1.0 M), pH 7.2, aqueous buffer, Tris buffer, pH 7 (1.0M), pH 7.20, ambient, 24 h, read-out: Solubility) was under 1 µg/mL and the solubility ([1]; at a pH of about 1) was “about 2 mg/mL”. The solubility at 24 h ([1]; deionized water, pH 7.14, water, Deionized Water, pH 7.14, ambient, 24 h, read-out: Solubility) was under 1 µg/mL, the solubility at 24 h ([1]; ethanol, organic solvent or mixture, Ethanol (second entry, pH NA), ambient, 24 h, read-out: Solubility) was 220 µg/mL (≈ 583 µM) and the solubility at 24 h ([1]; ethanol, pH 6.71, organic solvent or mixture, Ethanol (first entry), pH 6.71, ambient, 24 h, read-out: Solubility) was 56 µg/mL (≈ 148 µM). For the same compound, the solubility at 24 h ([1]; octanol, organic solvent or mixture, Octanol, ambient, 24 h, read-out: Solubility) was 175 µg/mL (≈ 464 µM), the solubility at 24 h ([1]; pH 1, simulated gastric fluid, at a pH of about 1, read-out: solubility) was at least 2000 µg/mL and the solubility at 24 h ([1]; propylene glycol, pH 6.04, organic solvent or mixture, Propylene Glycol, pH 6.04, ambient, 24 h, read-out: Solubility) was 359 µg/mL (≈ 951 µM). For the same compound, the hygroscopicity ([2]; DVS) was “moderate hygroscopicity”, the hydrate formation ([2]; DVS, 5% to 95% RH) was “did not form a hydrate” and the “release of adsorbed water in the desorption stage” value ([2]; DVS, 95% to 5% RH) was “All adsorbed water was released”. For the same compound, the “moisture picked up at 95% relative humidity (RH)” value ([2]; DVS, adsorption 5% to 95% RH) was about 8 wt %, the “weight gain from 5% to 95% relative humidity” value ([2]; step isothermic study (DVS)) was 8% and the “remains chemically stable for at least” value ([3]; 40° C./75% relative humidity) was at least 6 months. For the same compound, the “remains in substantially the same physical form for at least” value ([3]; 40° C./75% relative humidity) was at least 6 months, the “stability when subjected to mild mechanical stress” value ([3]; mild mechanical stress such as grinding) was “chemically and physically stable” and the “chemically and physically stable for at least about” value [3, 4] was “at least 2 weeks”. The “chemically and physically stable for at least about (e.g. value)” value [3, 4] was at least 6 months.
